Data: US20220089578A1, “COMPOUNDS AS GLP-1R AGONISTS” (Terns Pharmaceuticals, Inc., priority 2020, published 2022)
pEC50: −log10 of the molar value.

Target: human GLP-1R (Homo sapiens, UniProt P43220)
Assay: GLP-1R Cell Assay 1: cAMP Hunter CHO-K1 GLP1R Gs cell line, HitHunter cAMP assay
Type: cell-based
Conditions: cAMP Hunter CHO-K1 GLP1R Gs cells, percent activity normalized to Exendin-4
Protocol: GLP-1R mediated agonist activity was determined using the cAMP Hunter CHO-K1 GLP1R Gs cell line (DiscoverX, cat# 95-0062C2), a stable CHO-K1 derived cell lines overexpressing naturally Gs coupled wild-type human GLP-1R (accession number: NM_002062.3). GLP-1R agonism in this cell line was detected by measuring cellular cAMP levels using the HitHunter cAMP assay kit (cat# 90-0075SM2), a homogenous, gain-of-signal competitive immune assay based on Enzyme Fragment Complementation (EFC) technology. In this system cellular cAMP competes with exogenous labeled cAMP (ED-cAMP) for binding to an anti-cAMP antibody. […] The luminescent signal is directly proportional to the amount of cellular cAMP.
For compound testing, cells were seeded in a total volume of 20 μL in white walled, 384-well microplates and incubated at 37° C. prior to compound testing. Prior to compound addition, cell culture media was removed by aspiration and replaced with 15 pt reagent buffer (2:1 HBSS/10 mM HEPES: cAMP XS+Ab reagent). Compounds were dissolved in DSMO and serially diluted (3-fold) prior to final dilution to 4X in assay buffer. Samples (5 μL) were added to cells and incubated at 37° C. for […] prior to 1 hour incubation with 20 pt cAMP XS+ED/CL lysis reagent and 3 hour incubation with 20 μL cAMP XS+EA reagent at room temperature. Microplates were read on a PerkinElmer Envision instrument. Compound activity was analyzed using CBIS data analysis suite (ChemInnovation). Percent activity was calculated based on duplicate assay runs and normalized to the positive control Exendin-4, a GLP-1R peptide agonist, using the following formula: […]
The effective compound concentration resulting in 50% response (EC50) was determined by non-linear regression analysis of dose-response curves.

Chain of human GLP-1R (P43220 24-463): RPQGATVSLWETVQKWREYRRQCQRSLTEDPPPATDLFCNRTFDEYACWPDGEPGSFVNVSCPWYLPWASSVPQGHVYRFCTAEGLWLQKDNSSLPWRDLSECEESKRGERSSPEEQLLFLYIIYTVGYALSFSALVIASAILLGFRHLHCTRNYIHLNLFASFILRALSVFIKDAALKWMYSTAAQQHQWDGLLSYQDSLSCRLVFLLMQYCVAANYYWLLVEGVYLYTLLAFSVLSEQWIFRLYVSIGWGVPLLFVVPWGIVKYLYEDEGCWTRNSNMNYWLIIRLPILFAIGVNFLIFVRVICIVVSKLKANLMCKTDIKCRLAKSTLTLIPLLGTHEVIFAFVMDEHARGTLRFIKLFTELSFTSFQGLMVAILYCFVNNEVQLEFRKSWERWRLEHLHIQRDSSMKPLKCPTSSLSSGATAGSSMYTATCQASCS

pEC50 (Table 2)	pEC50 (Table 3)	Structure (SMILES)
8.38		N#Cc1ccc(COc2nn(C3CCN(Cc4nc5ccc(C(=O)O)cc5n4C[C@@H]4CCO4)CC3)cc2F)c(F)c1 [Compound 108, (S)-2-((4-(3-((4-cyano-2-fluorobenzyl)oxy)-4-fluoro-1H-pyrazol-1-yl)piperidin-1-yl)methyl)-1-(oxetan-2-ylmethyl)-1H-benzo[d]imidazole-6-carboxylic acid]
< 6.30		O=C(O)c1ccc2nc(CN3CCN(c4cccc(OCC5CC6(CCOCC6)C5)n4)CC3)n(C[C@@H]3CCO3)c2c1 [Compound 48, (S)-2-((4-(6-((7-oxaspiro[3.5]nonan-2-yl)methoxy)pyridin-2-yl)piperazin-1-yl)methyl)-1-(oxetan-2-ylmethyl)-1H-benzo[d]imidazole-6-carboxylic acid]
8.40		N#Cc1ccc(COc2nn(C3CCN(Cc4nc5ccc(C(=O)O)cc5n4C[C@@H]4CCO4)CC3)cc2Cl)c(F)c1 [Compound 102, (S)-2-((4-(4-chloro-3-((4-cyano-2-fluorobenzyl)oxy)-1H-pyrazol-1-yl)piperidin-1-yl)methyl)-1-(oxetan-2-ylmethyl)-1H-benzo[d]imidazole-6-carboxylic acid]
	< 6.30	O=C(O)c1ccc2nc(CN3CCC(c4cccc5c4CC(=O)N(c4ccccc4)C5)CC3)n(C[C@@H]3CCO3)c2c1 [Compound 152, (S)-1-(oxetan-2-ylmethyl)-2-((4-(3-oxo-2-phenyl-1,2,3,4-tetrahydroisoquinolin-5-yl)piperidin-1-yl)methyl)-1H-benzo[d]imidazole-6-carboxylic acid]
8.97		O=C(O)c1ccc2nc(CN3CCN(c4cccc(OCc5nc6cccc(F)c6s5)n4)CC3)n(C[C@@H]3CCO3)c2c1 [Compound 123, (S)-2-((4-(6-((7-fluorobenzo[d]thiazol-2-yl)methoxy)pyridin-2-yl)piperazin-1-yl)methyl)-1-(oxetan-2-ylmethyl)-1H-benzo[d]imidazole-6-carboxylic acid]
6.93		N#Cc1ccc2c(c1)CN(c1cccc(N3CCN(Cc4nc5ccc(C(=O)O)cc5n4C[C@@H]4CCO4)CC3)n1)CC2 [Compound 77, (S)-2-((4-(6-(7-cyano-3,4-dihydroisoquinolin-2(1H)-yl)pyridin-2-yl)piperazin-1-yl)methyl)-1-(oxetan-2-ylmethyl)-1H-benzo[d]imidazole-6-carboxylic acid]
	< 6.30	O=C(O)c1ccc2nc(CN3CCC(n4cc5cccc(Oc6ccccc6)c5n4)CC3)n(C[C@@H]3CCO3)c2c1 [Compound 159, (S)-1-(oxetan-2-ylmethyl)-2-((4-(7-phenoxy-2H-indazol-2-yl)piperidin-1-yl)methyl)-1H-benzo[d]imidazole-6-carboxylic acid]
< 6.30		O=C(O)c1ccc2nc(CN3CCN(c4cccc(OCC5CCS(=O)(=O)CC5)n4)CC3)n(C[C@@H]3CCO3)c2c1 [Compound 54, (S)-2-((4-(6-((1,1-dioxidotetrahydro-2H-thiopyran-4-yl)methoxy)pyridin-2-yl)piperazin-1-yl)methyl)-1-(oxetan-2-ylmethyl)-1H-benzo[d]imidazole-6-carboxylic acid]
6.85		N#Cc1ccc2c(c1)CCCN(c1cccc(N3CCN(Cc4nc5ccc(C(=O)O)cc5n4C[C@@H]4CCO4)CC3)n1)C2 [Compound 74, (S)-2-((4-(6-(7-cyano-1,3,4,5-tetrahydro-2H-benzo[c]azepin-2-yl)pyridin-2-yl)piperazin-1-yl)methyl)-1-(oxetan-2-ylmethyl)-1H-benzo[d]imidazole-6-carboxylic acid]
6.62		O=C(O)c1ccc2nc(CN3CCN(c4cccc(OCC5CCC5)n4)CC3)n(C[C@@H]3CCO3)c2c1 [Compound 88, (S)-2-((4-(6-(cyclobutylmethoxy)pyridin-2-yl)piperazin-1-yl)methyl)-1-(oxetan-2-ylmethyl)-1H-benzo[d]imidazole-6-carboxylic acid]
	< 6.30	N#Cc1ccc(CCn2ccc(C3CCN(Cc4nc5ccc(C(=O)O)cc5n4C[C@@H]4CCO4)CC3)n2)c(F)c1 [Compound 145, (S)-2-((4-(1-(4-cyano-2-fluorophenethyl)-1H-pyrazol-3-yl)piperidin-1-yl)methyl)-1-(oxetan-2-ylmethyl)-1H-benzo[d]imidazole-6-carboxylic acid]
< 6.30		N#Cc1ccc2c(c1)CCN(c1ccn(C3CCN(Cc4nc5ccc(C(=O)O)cc5n4C[C@@H]4CCO4)CC3)n1)C2 [Compound 105, (S)-2-((4-(3-(6-cyano-3,4-dihydroisoquinolin-2(1H)-yl)-1H-pyrazol-1-yl)piperidin-1-yl)methyl)-1-(oxetan-2-ylmethyl)-1H-benzo[d]imidazole-6-carboxylic acid]
	6.58	N#Cc1ccc([C@H]2CCc3c(cccc3N3CCN(Cc4nc5ccc(C(=O)O)cc5n4C[C@@H]4CCO4)CC3)O2)c(F)c1 (single isomer, unassigned) [Compound 151-P1]
9.51		N#Cc1ccc(COc2cccc(N3CCC(Cc4nc5ccc(C(=O)O)cc5n4C[C@@H]4CCO4)CC3)n2)c(F)c1 [Compound 15, (S)-2-((1-(6-((4-cyano-2-fluorobenzyl)oxy)pyridin-2-yl)piperidin-4-yl)methyl)-1-(oxetan-2-ylmethyl)-1H-benzo[d]imidazole-6-carboxylic acid]
6.61		N#Cc1ccc(Cn2cnc3ccc(N4CCN(Cc5nc6ccc(C(=O)O)cc6n5C[C@@H]5CCO5)CC4)nc32)c(F)c1 [Compound 100, (S)-2-((4-(3-(4-cyano-2-fluorobenzyl)-3H-imidazo[4,5-b]pyridin-5-yl)piperazin-1-yl)methyl)-1-(oxetan-2-ylmethyl)-1H-benzo[d]imidazole-6-carboxylic acid]
< 6.30		O=C(O)c1ccc2nc(CN3CCN(c4nc(OCc5ccccc5)ns4)CC3)n(C[C@@H]3CCO3)c2c1 [Compound 32, (S)-2-((4-(3-(benzyloxy)-1,2,4-thiadiazol-5-yl)piperazin-1-yl)methyl)-1-(oxetan-2-ylmethyl)-1H-benzo[d]imidazole-6-carboxylic acid]
7.36		N#Cc1cccc2c1CCN(c1cccc(N3CCN(Cc4nc5ccc(C(=O)O)cc5n4C[C@@H]4CCO4)CC3)n1)C2 [Compound 120, (S)-2-((4-(6-(5-cyano-3,4-dihydroisoquinolin-2(1H)-yl)pyridin-2-yl)piperazin-1-yl)methyl)-1-(oxetan-2-ylmethyl)-1H-benzo[d]imidazole-6-carboxylic acid]
6.61		N#Cc1ccc(COc2cccc(C3CCN([C@@H]4CCn5c4nc4ccc(C(=O)O)cc45)CC3)n2)c(F)c1 (single isomer, unassigned) [Compound 6-P1]
7.97		CC1Cc2cc(C#N)cc(F)c2CN1c1cccc(N2CCN(Cc3nc4ccc(C(=O)O)cc4n3C[C@@H]3CCO3)CC2)n1 (stereo partly drawn) [Compound 133, 2-((4-(6-(6-cyano-8-fluoro-3-methyl-3,4-dihydroisoquinolin-2(1H)-yl)pyridin-2-yl)piperazin-1-yl)methyl)-1-(((S)-oxetan-2-yl)methyl)-1H-benzo[d]imidazole-6-carboxylic acid]

Structure (SMILES)	pEC50 (Table 2)	pEC50 (Table 3)
N#Cc1ccc(COc2cccc(C34CCN(Cc5nc6ccc(C(=O)O)cc6n5C[C@@H]5CCO5)CC3C4)n2)c(F)c1 (stereo partly drawn) [Compound 9, 2-((6-(6-((4-cyano-2-fluorobenzyl)oxy)pyridin-2-yl)-3-azabicyclo[4.1.0]heptan-3-yl)methyl)-1-((S)-oxetan-2-ylmethyl)-1H-benzo[d]imidazole-6-carboxylic acid]	9.32	
N#Cc1ccc(COc2cccc([C@]34CCN(Cc5nc6ccc(C(=O)O)cc6n5C[C@@H]5CCO5)C[C@H]3C4)n2)c(F)c1 [Compound 9-P2, 2-(((1S,6R)-6-(6-((4-cyano-2-fluorobenzyl)oxy)pyridin-2-yl)-3-azabicyclo[4.1.0]heptan-3-yl)methyl)-1-((S)-oxetan-2-ylmethyl)-1H-benzo[d]imidazole-6-carboxylic acid]	9.31	
CCn1cncc1Cn1c(CN2CCC3(c4cccc5c4OC(C)(c4ccc(Cl)cc4F)O5)CC3C2)nc2ccc(C(=O)O)cc21 (stereo not drawn) [Compound 138, 2-((6-(2-(4-chloro-2-fluorophenyl)-2-methylbenzo[d][1,3]dioxol-4-yl)-3-azabicyclo[4.1.0]heptan-3-yl)methyl)-1-((1-ethyl-1H-imidazol-5-yl)methyl)-1H-benzo[d]imidazole-6-carboxylic acid]	9.97	
CCn1cncc1Cn1c(CN2CC[C@@]3(c4cccc(OCc5ccc(C#N)cc5F)n4)C[C@H]3C2)nc2ccc(C(=O)O)cc21 (single isomer, unassigned) [Compound 121-P1]	10.48	
CCn1cncc1Cn1c(CN2CC[C@@]3(c4cccc(N5CCc6cc(C#N)cc(F)c6C5)n4)C[C@H]3C2)nc2ccc(C(=O)O)cc21 [Compound 184-P1, 2-(((1R,6S)-6-(6-(6-cyano-8-fluoro-3,4-dihydroisoquinolin-2(1H)-yl)pyridin-2-yl)-3-azabicyclo[4.1.0]heptan-3-yl)methyl)-1-((1-ethyl-1H-imidazol-5-yl)methyl)-1H-benzo[d]imidazole-6-carboxylic acid]		9.57
